Converted amounts (≈) assume the structure as drawn.
Tests used:
[1] = tested on: Mycobacterium tuberculosis; experiment: Antitubercular activity against Mycobacterium tuberculosis; type: functional; conditions: for MIC: Mycobacterium tuberculosis
[2] = Lipophilicity, log P of the compound; conditions: octanol/water

SMILES | log(1/MIC) [1] | MIC [1] [µg/mL] | logP ([2]; logP) | logP [2]
CCN(CC)CCN(C)c1ccc(/C=N/NC(=O)c2ccncc2)cc1 | 1.1 | 0.08 (≈ 0.226 µM) | 2.43 | 
NNC(=O)c1ccnc([N+](=O)[O-])c1 | -1.83 | 67.6 (≈ 371 µM) | -2.21 | 
CC(C)NNC(=O)c1ccncc1 [IPRONIAZID] | 0.4 | 0.4 (≈ 2.23 µM) |  | -1.248
CC(C)(C#N)NNC(=O)c1ccncc1 | 1.22 | 0.06 (≈ 0.294 µM) | -0.976 | 
NNC(=O)c1ccco1 | 1.22 | 0.06 (≈ 0.476 µM) | -0.139 | 
C/C(=N\NC(=O)c1ccncc1)c1cccc(CN2CCN(C)CC2)c1O | -0.52 | 3.28 (≈ 8.93 µM) | 1.99 | 
CC(=O)NNC(C)=O | -2.78 | 600 (≈ 5170 µM) | -3.91 | 
Cc1ncnc(O)c1C(=O)NN | -2.6 | 400 (≈ 2380 µM) | -2.88 | 
CON1C(=O)C(=O)N1c1ccc([N+](=O)[O-])cc1 | 1.52 | 0.03 (≈ 0.126 µM) | 0.963 | 
CC(C)=NNC(=O)c1ccncc1 | 1.7 | 0.02 (≈ 0.113 µM) | -1.53 | 
CN(C)C(=O)N1CCC(C(=O)NN)CC1 | -2.78 | 600 (≈ 2800 µM) | -3.12 | 
CC(C)/C=N\NC(=O)c1ccncc1 | 1 | 0.1 (≈ 0.523 µM) | -0.998 | 
O=C(N/N=C/C(O)C(O)C(O)C(O)CO)c1ccco1 (configuration not stated) | -0.78 | 6 (≈ 20.8 µM) | -3.86 | 
NNC(=O)c1ccc([N+](=O)[O-])o1 | 0.1 | 0.8 (≈ 4.68 µM) | -0.396 | 
NNC(=O)CN1CSC(N)=N1 | -2.48 | 300 (≈ 1710 µM) |  | -4.033
NNC(=O)c1ccnc(Br)c1 | -2.12 | 133 (≈ 616 µM) | -1.46 | 
CC(C)Cc1cc(C(=O)NN)ccn1 | -1.94 | 87 (≈ 450 µM) | -0.216 | 

SMILES | log(1/MIC) [1] | MIC [1] [µg/mL] | logP ([2]; logP) | logP [2]
CC(C)CNNC(=O)c1ccncc1 | 1 | 0.1 (≈ 0.517 µM) | -0.719 | 
O=C(NNC(=O)c1ccco1)c1ccco1 | -2 | 100 (≈ 454 µM) | 1.38 | 
CCCCC/C(C)=N/NC(=O)c1ccncc1 | 1.52 | 0.03 (≈ 0.129 µM) | 0.589 | 
C/C(=N\NC(=O)c1ccncc1)c1cccc(CN2CCCCC2)c1O | -0.21 | 1.62 (≈ 4.6 µM) | 2.55 | 
O=C(NO)c1ccncc1 | -2.08 | 120 (≈ 869 µM) | -2.65 | 
CCC(C)NNC(=O)c1ccncc1 (configuration not stated) | 0.4 | 0.4 (≈ 2.07 µM) | -0.719 | 
NNC(=O)c1c[nH]c(S)n1 | -2.4 | 250 (≈ 1580 µM) | -2.26 | 
NNC(=O)c1ccnc(Cl)c1 | -1.83 | 67.3 (≈ 392 µM) | -1.61 | 
NNC(=O)c1ccnc2ccccc12 | -1.9 | 80 (≈ 427 µM) | -1.35 | 
C/C=N/NC(=O)c1ccncc1 | 1.4 | 0.04 (≈ 0.245 µM) | -1.93 | 
CN(C)NC(=O)c1ccco1 | -2.48 | 300 (≈ 1950 µM) | 0.653 | 
Cc1cnccc1C(=O)NN | -2.3 | 200 (≈ 1320 µM) | -1.67 | 
CC(C)/C=N\NC(=O)c1ccco1 | 0.82 | 0.15 (≈ 0.832 µM) | 1.19 | 
CC(O)(NNC(=O)c1ccncc1)C(=O)O (configuration not stated) | 1.22 | 0.06 (≈ 0.266 µM) | -2.78 | 
O=C(NN=C1CCCCC1)c1ccncc1 | 2.22 | 0.01 (≈ 0.046 µM) | -0.334 | 
NNC(=O)c1ccccc1 [BENZOIC ACID HYDRAZIDE] | 0.22 | 0.6 (≈ 4.41 µM) |  | -0.845
O=C(NNC(O)C(Cl)(Cl)Cl)c1ccncc1 (configuration not stated) | 1.4 | 0.04 (≈ 0.141 µM) |  | -1.22
